{
  "source": "patent US10682388B2",
  "about": "“Targeting of PELP1 in cancer therapy” (THE BOARD OF REGENTS OF THE UNIVERSITY OF TEXAS SYSTEM, priority 2014, dated 2020)",
  "key": {"[1]": {"system": "ERE-luciferase in ZRPELP1 cells", "assay": "ERE-luciferase reporter gene assay in PELP1 overexpressing cells", "type": "cell-based, Human", "settings": "peptide 24 hours, estradiol 12 hours, compared to control TAT, FIGS. 4B, 10", "method": "(§1) FIGS. 4A-E. (FIG. 4A) ZR75vec, ZR75PELP1, MCF7vec and MCF7PELP1 cells were treated in triplicate with TAT, PIP1 or PIP1 deletions (Del1, Del2, Del3) at 10 uM every 3 days and proliferation was measured by MTT assay on day 7. (FIG. 4B) ZRPELP1 cells were transfected with ERE-luciferase and treated with TAT, PIP1, or PIP2 for 24 hours and with estradiol for 12 hours. Relative luciferase activity was measured in triplicate. (FIG. 4C) ZR75 cells were grown in 5% DCC media for 72 hours, treated with TAT or PIP1 every 3 days, and treated with estradiol 10^−7 M for 12 hours. Proliferation was measured in triplicate on day 7 by MTT assay at 595 nm. (FIG. 4D) MCF7-Letrozole resistant cells were grown in 5% DCC media for 72 hours, treated with TAT, PIP1 or PIP2 every 3 days, and letrozole or estradiol 10^−7 M for 12 hours. Proliferation was measured in triplicate on day 7 by MTT assay at 595 nm. (FIG. 4E) MCF7-Tamoxiefn resistant cells were grown in 5% DCC media for 72 hours, treated with TAT, PIP1 or PIP2 every 3 days, and tamoxifen or estradiol 10^−7 M for 12 hours. Proliferation was measured in triplicate on day 7 by MTT assay at 595 nm.\nFIG. 10. ERE-luciferase assay. […]\nModel cells were seeded in 6-well plates. […] Luciferase activity was measured by using the luciferase assay system (Promega, Madison, Wis.)."}, "ZR75 cells [2]": {"system": "ZR75 cells", "assay": "Estrogen-mediated growth, MTT assay", "type": "cell-based, Human", "settings": "ZR75 cells stimulated with estradiol, FIG. 4C", "method": "as §1, with “(FIG. 4E) MCF7-Tamoxiefn resistant cells were grown in 5% DCC media for 72 hours, treated with TAT, PIP1 or PIP2 every 3 days, and tamoxifen or estradiol 10^−7 M for 12 hours.” left out\nCell proliferation rates were measured by using MTT Cell Viability Assay in 96-well plates. […] After an overnight incubation, cells were treated with varying concentrations of the peptides for 3-7 days and growth inhibition was determined by using traditional MTT assay (Sigma) following manufacturer's instructions."}, "[3]": {"system": "MCF7-TamR and MCF7-LTLT cells", "assay": "Therapy resistance assays, MTT", "type": "cell-based, Human", "settings": "FIGS. 4D-E, 11", "method": "as §1\nFIG. 11. Cell proliferation assay: letrozole-resistant MCF-7-LTLT cells and Tamoxifen resistant MCF7-Tam cells were treated with TAT, PIP1, or PIP2 (10 μM)+/− letrozole or Tamoxifen.\nTamoxifen (Tam) therapy resistant MCF7-TamR and letrozole resistant MCF7-LTLT cells were cultured in tamoxifen or letrozole (10^-7M) containing media in the presence or absence of peptides and proliferation was measured by MTT assay (Sigma) following manufacturer's instructions."}, "[4]": {"system": "Beta-catenin reporter in ZRGST and ZRPELP1GST cells", "assay": "TopFlash β-catenin reporter assay", "type": "cell-based", "settings": "10 μM, 24 hours, independent of ERα, FIG. 7C", "method": "FIGS. 7A-E. (FIG. 7A) Bacterial purified PELP1 was incubated with biotin-tagged peptides bound to avidin beads for one hour. Beads were washed, run on SDS-PAGE gel and probed for PELP1 expression. Input of bacterial PELP1 is shown as control. (FIG. 7B) Recombinant G9a-GST was bound to glutathione beads and incubated with purified PELP1 and peptides for 2 hours. Beads were washed and run on SDS-PAGE gel. (+2 μM, ++5 μM, +++10 μM). (FIG. 7C) ZRGST and ZRPELP1GST cells were transfected in triplicate with TopFlash β-catenin reporter and treated with TAT or PIP1 (10 μM) for 24 hours. Relative luciferase activity is shown. (FIG. 7D) MCF7vec and MCF7PELP1 cells were treated with TAT or PIP1 (10 μM) and toxicity was measured by CytoTox-Flour Cytotoxicity Assay. (FIG. 7E) ZR75 and ZR75PELP1 cells were treated with TAT, PIP1 or PIP2 for 24 hours and immunoblotted for PELP1 and ERα expression with actin as the loading control."}, "ZR75 cells [5]": {"system": "ZR75 cells", "assay": "TUNEL assay", "type": "cell-based, Human", "settings": "10 μM, 24 hours, FIG. 5D", "method": "FIGS. 5A-D. (FIG. 5A) ZR75vec, ZR75PELP1, MCF7vec and MCF7PELP1 cells were plated in the top of a Boyden chamber transwell, treated with TAT, PIP1 or PIP2 (10 μM) and absorbance was measured at 12 hours in triplicate. (FIG. 5B) MCF7vec, MCFP7ELP1, ZR75vec and ZR75PELP1 cells were treated in triplicate with TAT, PIP1 or PIP2 (10 μM) every 3 days, fixed with methanol on day 10 and stained with crystal violet. Average colonies per well are shown. (FIG. 5C) ZR75vec and ZR75PELP1 cells were plated in triplicate in agar with 8% RPMI with TAT, PIP1 or PIP2 (10 μM). Colonies were counted on day 14, representative images are shown on right. (FIG. 5D) ZR75 cells were plated on coverslips in triplicate and treated with TAT or PIP1 (10 μM) for 24 hours. Cells were fixed with paraformaldehyde and labeled with TUNEL and DAPI, representative images are shown on right.\nZR75 and ZR75PELP1 cells were plated on coverslips in 8% RPMI and treated with peptide for 24 hours. Cells were labeled with in situ Cell Death Detection Kit (Roche) according to manufacturer's protocol, imaged by fluorescent microscopy and quantified."}, "[6]": {"system": "ZRPELP1 and MCF7-PELP1 cells", "assay": "Mammosphere formation assay", "type": "cell-based, Human", "settings": "10 μM and 20 μM, FIG. 12", "method": "FIG. 12. Effect of PIP1 on mammosphere formation. Single-cell suspensions of ZR75-PELP1 were plated in triplicate wells at a density of 10,000 cells per ml in mammosphere medium in non-adherent plates. Cultures were treated with indicated concentration of PIP1 and mammospheres were counted after 7 days. ZR75PELP1 and MCF7PELP1 cells were FACS sorted for CD44-APC^high (Milteny Biotec) and CD24-PE^low (Milteny Biotec) cell surface markers. A single cell suspension of model cells ZR75-PELP1 were seeded in mammosphere media in a low adherent 96-well plate with TAT or PIP (10, 20 or 50 μM). Media containing peptide was added on day 4 and mammospheres were counted and imaged on day 8 (Shaw et al., 2012)."}},
  "note": "Entries after “also recorded” stand apart in the source; their conditions may differ.",
  "data": [
    {"sequence": "GRKKRRQRRRGGMVEFRWSCPGRRKAKA [PIP1]", "values": [
      {"measurement": "ERE activation (ERE-luciferase)", "setting": "[1]", "value": "significantly decreased ERE activation"},
      {"measurement": "estrogen-mediated growth", "setting": "ZR75 cells [2]", "value": "inhibition of the estrogen-mediated growth"},
      {"measurement": "proliferation of therapy resistant cell lines", "setting": "[3]; MCF7-TamR and MCF7-LTLT, 10 μM", "value": "inhibited the proliferation; also recorded: efficiently reduce the growth of therapy resistant cells"},
      {"measurement": "combined effect on proliferation with hormonal therapy (tamoxifen, letrozole)", "setting": "[3]; therapy resistant cells", "value": "synergistic inhibition of proliferation with tamoxifen"},
      {"measurement": "Beta-catenin reporter activity", "setting": "[4]", "value": "no significant effect on reporter activity"},
      {"measurement": "apoptosis by TUNEL assay", "setting": "ZR75 cells [5]", "value": "induces apoptosis"},
      {"measurement": "number of mammospheres", "setting": "[6]", "value": "significant decrease in the number of mammospheres"},
      {"measurement": "size of the mammospheres", "setting": "[6]", "value": "substantially decreased"}
    ]}
  ]
}
